Assays:
[1] = biological target: Hepatocyte growth factor receptor (Homo sapiens, UniProt P08581); assay: In Vitro c-Met and VEGFR-2 Enzyme Assay; details: pH 7.4; 37 °C
Experimental: (§1) Briefly, 20 μg/mL poly (Glu,Tyr) 4:1 (Sigma) was pre-coated in 96-well plates as a substrate. A 50 μL aliquot of 10 μmol/L ATP solution diluted in kinase reaction buffer (50 mmol/L HEPES [pH 7.4], 50 mmol/L MgCl2, 0.5 mmol/L MnCl2, 0.2 mmol/L Na3VO4, and 1 mmol/L DTT) was added to each well; 1 μL of various concentrations of indicated compounds diluted in 1% DMSO (v/v) (Sigma) was then added to each reaction well. DMSO (1%, v/v) was used as the negative control. The kinase reaction was initiated by the addition of purified tyrosine kinase proteins diluted in 49 μL of kinase reaction buffer. After incubation for 60 min at 37 °C, the plate was washed three times with phosphate-buffered saline (PBS) containing 0.1% Tween 20 (T-PBS). Anti-phosphotyrosine (PY99) antibody was then added. After a 30-min incubation at 37 °C, the plate was washed three times, and horseradishperoxidase-conjugated goat anti-mouse IgG was added. The plate was then incubated at 37 °C for 30 min and washed 3 times. A 100 μL aliquot of a solution containing 0.03% H2O2 and 2 mg/ml ophenylenediamine in 0.1 mol/L citrate buffer (pH 5.5) was added. The reaction was terminated by the addition of 50 μL of 2 mol/L H2SO4 as the color changed, and the plate was analyzed using a multi-well spectrophotometer (SpectraMAX 190, Molecular Devices) at 490 nm.

[2] = biological target: Vascular endothelial growth factor receptor 2 (Homo sapiens, UniProt P35968); assay: In Vitro c-Met and VEGFR-2 Enzyme Assay; details: pH 7.4; 37 °C
Vascular endothelial growth factor receptor 2, sequence (P35968 whole entry): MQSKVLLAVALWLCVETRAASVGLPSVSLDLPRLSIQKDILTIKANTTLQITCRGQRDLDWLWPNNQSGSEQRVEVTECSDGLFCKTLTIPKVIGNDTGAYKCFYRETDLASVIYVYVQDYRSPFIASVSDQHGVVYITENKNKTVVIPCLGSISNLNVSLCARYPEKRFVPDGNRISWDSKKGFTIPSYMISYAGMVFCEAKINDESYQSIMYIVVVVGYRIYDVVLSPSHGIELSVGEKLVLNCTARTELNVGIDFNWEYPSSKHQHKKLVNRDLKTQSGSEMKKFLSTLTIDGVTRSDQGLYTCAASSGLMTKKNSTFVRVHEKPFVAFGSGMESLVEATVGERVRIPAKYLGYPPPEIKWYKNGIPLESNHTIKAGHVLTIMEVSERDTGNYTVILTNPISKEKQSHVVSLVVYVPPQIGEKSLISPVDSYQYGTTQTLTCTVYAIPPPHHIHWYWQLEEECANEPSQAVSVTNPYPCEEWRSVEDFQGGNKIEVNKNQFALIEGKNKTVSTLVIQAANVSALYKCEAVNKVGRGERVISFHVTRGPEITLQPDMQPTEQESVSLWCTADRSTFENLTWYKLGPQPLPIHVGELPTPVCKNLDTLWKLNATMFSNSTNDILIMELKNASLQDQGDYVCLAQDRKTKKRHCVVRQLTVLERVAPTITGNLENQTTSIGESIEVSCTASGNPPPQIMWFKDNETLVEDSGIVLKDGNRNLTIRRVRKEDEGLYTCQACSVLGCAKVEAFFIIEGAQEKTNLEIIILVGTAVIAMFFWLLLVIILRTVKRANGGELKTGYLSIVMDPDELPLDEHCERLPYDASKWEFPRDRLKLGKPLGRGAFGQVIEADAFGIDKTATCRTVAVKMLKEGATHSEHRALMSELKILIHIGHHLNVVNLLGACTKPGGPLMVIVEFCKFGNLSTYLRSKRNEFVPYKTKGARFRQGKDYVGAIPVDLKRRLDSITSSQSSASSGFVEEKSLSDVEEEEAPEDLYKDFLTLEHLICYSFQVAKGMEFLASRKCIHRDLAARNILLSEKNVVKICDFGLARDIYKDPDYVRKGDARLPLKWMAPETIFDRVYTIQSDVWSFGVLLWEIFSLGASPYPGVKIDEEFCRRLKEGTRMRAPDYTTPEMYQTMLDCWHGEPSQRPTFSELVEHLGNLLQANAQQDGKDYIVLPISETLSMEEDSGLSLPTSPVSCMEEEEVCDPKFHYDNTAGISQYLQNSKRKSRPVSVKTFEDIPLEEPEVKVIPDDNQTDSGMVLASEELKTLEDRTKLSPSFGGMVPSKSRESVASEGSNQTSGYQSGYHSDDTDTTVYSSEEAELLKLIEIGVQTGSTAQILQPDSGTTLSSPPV
Experimental: as §1

Hepatocyte growth factor receptor, sequence (P08581 whole entry): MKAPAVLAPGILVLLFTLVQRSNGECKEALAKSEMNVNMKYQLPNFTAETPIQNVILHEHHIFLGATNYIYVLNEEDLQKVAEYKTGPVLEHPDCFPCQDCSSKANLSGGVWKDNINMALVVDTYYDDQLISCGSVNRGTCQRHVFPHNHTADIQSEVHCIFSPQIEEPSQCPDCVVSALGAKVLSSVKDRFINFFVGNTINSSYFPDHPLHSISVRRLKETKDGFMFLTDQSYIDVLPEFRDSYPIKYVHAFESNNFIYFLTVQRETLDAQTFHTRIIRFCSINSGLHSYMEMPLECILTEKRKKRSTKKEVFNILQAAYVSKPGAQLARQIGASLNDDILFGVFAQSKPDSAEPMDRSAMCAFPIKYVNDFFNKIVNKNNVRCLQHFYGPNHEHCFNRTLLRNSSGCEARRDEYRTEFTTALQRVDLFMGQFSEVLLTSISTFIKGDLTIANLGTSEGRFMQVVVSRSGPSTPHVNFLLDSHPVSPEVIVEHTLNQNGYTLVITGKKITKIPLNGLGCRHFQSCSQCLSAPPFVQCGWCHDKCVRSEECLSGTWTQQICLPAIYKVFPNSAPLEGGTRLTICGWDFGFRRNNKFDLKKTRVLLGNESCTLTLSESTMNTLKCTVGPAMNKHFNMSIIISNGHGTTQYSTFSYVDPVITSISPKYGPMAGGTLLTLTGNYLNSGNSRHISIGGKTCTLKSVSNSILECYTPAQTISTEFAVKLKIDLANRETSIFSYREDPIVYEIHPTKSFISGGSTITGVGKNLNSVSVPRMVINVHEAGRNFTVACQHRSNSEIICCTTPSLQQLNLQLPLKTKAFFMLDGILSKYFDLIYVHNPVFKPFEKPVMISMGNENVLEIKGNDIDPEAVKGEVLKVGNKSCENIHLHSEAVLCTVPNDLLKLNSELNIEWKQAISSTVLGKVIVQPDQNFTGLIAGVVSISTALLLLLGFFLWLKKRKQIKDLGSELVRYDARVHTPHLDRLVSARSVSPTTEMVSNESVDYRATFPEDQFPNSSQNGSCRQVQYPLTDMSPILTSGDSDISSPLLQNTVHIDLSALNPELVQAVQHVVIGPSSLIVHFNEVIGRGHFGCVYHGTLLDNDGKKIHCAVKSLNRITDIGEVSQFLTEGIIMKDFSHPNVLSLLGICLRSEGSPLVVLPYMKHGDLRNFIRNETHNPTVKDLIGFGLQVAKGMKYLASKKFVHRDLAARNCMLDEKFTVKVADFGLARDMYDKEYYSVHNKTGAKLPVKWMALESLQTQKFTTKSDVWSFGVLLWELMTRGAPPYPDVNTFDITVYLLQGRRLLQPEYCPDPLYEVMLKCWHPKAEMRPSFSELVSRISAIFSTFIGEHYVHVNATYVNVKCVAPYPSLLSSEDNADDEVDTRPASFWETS

SMILES | IC50 [1] [nM] | IC50 [2] [nM]
Cc1c(C(=O)Nc2ccc(Oc3ccnc(C(=O)NCCN4CCOCC4)c3)c(F)c2)c(=O)n(-c2ccccc2)n1C [4-(4-(1,5-dimethyl-3-oxo-2-phenyl-2,3-dihydro-1H-pyrazole-4-carboxamido)-2-fluorophenoxy)-N-(2-morpholinoethyl)picolinamide (9l)] | 510 | 860
Cc1c(C(=O)Nc2ccc(Oc3ccnc(-c4nncn4CCCN4CCN(C)CC4)c3)c(F)c2)c(=O)n(-c2ccccc2)n1C [N-(3-fluoro-4-((2-(4-(3-(4-methylpiperazin-1-yl)propyl)-4H-1,2,4-triazol-3-yl)pyridin-4-yl)oxy)phenyl)-1,5-dimethyl-3-oxo-2-phenyl-2,3-dihydro-1H-pyrazole-4-carboxamide (12d)] | – | 190
CCN1CCN(C(=O)c2cc(Oc3ccc(NC(=O)c4c(C)n(C)n(-c5ccccc5)c4=O)cc3F)ccn2)CC1 [N-(4-((2-(4-ethylpiperazine-1-carbonyl)pyridin-4-yl)oxy-3-fluorophenyl)-1,5-dimethyl-3-oxo-2-phenyl-2,3-dihydro-1H-pyrazole-4-carboxamide (9j)] | 970 | > 1000

Now from value to molecule:

IC50 [1] [nM] | IC50 [2] [nM] | SMILES
250 | 840 | Cc1c(C(=O)Nc2ccc(Oc3ccnc(C(=O)NCCCN4CCOCC4)c3)c(F)c2)c(=O)n(-c2ccccc2)n1C [4-(4-(1,5-dimethyl-3-oxo-2-phenyl-2,3-dihydro-1H-pyrazole-4-carboxamido)-2-fluorophenoxy)-N-(3-morpholinopropyl) picolinamide (9h)]
150 | 370 | Cc1c(C(=O)Nc2ccc(Oc3ccnc(-c4nncn4CCCN(C)C)c3)c(F)c2)c(=O)n(-c2ccccc2)n1C [N-(3-fluoro-4-((2-(4-(3-dimethylaminopropyl)-4H-1,2,4-triazol-3-yl)pyridin-4-yl)oxy)phenyl)-1,5-dimethyl-3-oxo-2-phenyl-2,3-dihydro-1H-pyrazole-4-carboxamide (12b)]
170 | 520 | Cc1c(C(=O)Nc2ccc(Oc3ccnc(-c4nncn4CCCN4CCOCC4)c3)c(F)c2)c(=O)n(-c2ccccc2)n1C [N-(3-fluoro-4-((2-(4-(3-morpholinopropyl)-4H-1,2,4-triazol-3-yl)pyridin-4-yl)oxy)phenyl)-1,5-dimethyl-3-oxo-2-phenyl-2,3-dihydro-1H-pyrazole-4-carboxamide (12c)]
330 | 780 | Cc1c(C(=O)Nc2ccc(Oc3ccnc(C(=O)N4CCC(N5CCCCC5)CC4)c3)c(F)c2)c(=O)n(-c2ccccc2)n1C [N-(4-((2-([1,4'-bipiperidine]-1'-carbonyl)pyridin-4-yl)oxy)-3-fluorophenyl)-1,5-dimethyl-3-oxo-2-phenyl-2,3-dihydro-1H-pyrazole-4-carboxamide (9o)]
